Laboratory results from patent US11708375B2, “Reagents for reversibly protecting biological molecules” (BIOMÉRIEUX, priority 2016, dated 2023).
Values belong to the molecule of their own block, whether it stands above or below them.

What was measured:
[1] = Cleavage at 95° C. of aza-anthranilate amides and release of phenylethylamine under hot start PCR conditions (LCMS/HPLC monitoring); type: physicochemical; conditions: 60 mM Tris pH 9 PCR buffer
Experimental: Into a 1.5 mL tube are added: 20 μL 2.5 mM amide solution (10, 14 or 19) in DMSO and 180 μL of a buffer conventionally used in a genetic material amplification reaction (60 mM Tris pH 9, 50 mM […], 1 mM MgCl2). The mixture is then stirred at 95° C. in a thermomixer. LCMS monitoring (condition 1) is performed at t=15 min, 30 min, and 1 h
Thermal deprotection of the phenoxyacetate group leads to formation of the corresponding benzyl alcohol (see Diagram 7). The nucleophilic attack of alcohol on the carbonyl involved in the amide bond then allows releasing the phenylethylamine into the medium by generating the corresponding lactone.
This derivative can then be cyclized to form the corresponding […] by releasing phenylethylamine into the medium (Diagram 9 above).

Human hemoglobin = biological target: T1, Human hemoglobin (Homo sapiens, UniProt P68871+P69905); experiment: Reversible acylation of hemoglobin by compound 13 (HPLC profile); type: biochemical
T1 construct: purchased Sigma H7379
Experimental: The mixtures are created as described below, where experiments AL600 1× to AL 600 0.25× respectively correspond to 33 μg hemoglobin reacted with increasing concentrations of the azaisatoic compound in a mixture of DMSO and PBS at pH 7.4 (PBS=Phosphate buffered saline resulting from dissolving a tablet, reference Sigma P4417, in 200 ml water (pH 7.4)) The mixtures are incubated at room temperature for 2 hours before collecting an aliquot for HPLC analysis on a Waters XBridge BEH C4 300 column (Milford. USA), with a gradient of 20 to 72% acetonitrile in a solution of 10 mM trifluoroacetic acid, at 120 min.
One can clearly see, as before, that acylation of the hemoglobin leads to formation of a mass of acylated protein and then this mass disappears after heat treatment in order to regenerate the native protein.

Taq polymerase = biological target: T2, Taq polymerase (Thermus aquaticus, UniProt P19821); experiment: Polymerase activity of TAQ modified by compound 13 (hairpin probe elongation fluorescence); type: biochemical; conditions: AL 604 0.375x
T2 construct: purchased Genscript E00012
Experimental: We used the Genscript Taq (2500 u/100 μl REF E00012), but in order to eliminate all traces of nucleophiles in this enzyme we did a change of buffer beforehand by passing through an Amicon 10 KD microcon (no. 42407). The enzyme suspension was thus deposited on the microcon and centrifuged until buffer depletion Five washes were performed with […] PBS pH 7.4, then the last retentate was recovered by inverting the tube and made up to QSP 20 μl with PBS to obtain a suspension at 125 u/μl. […]
The polymerization activity of the TAQ polymerase is determined using an oligonucleotide probe of 45 bases terminated by a “hairpin” structure. This is characterized by the presence of a fluorescence quencher at the beginning of the structure and a fluorophore at the end of the probe sequence, such that the quencher is spatially close to the fluorophore and no fluorescence signal can be measured in this configuration. […] Due to the elongation action, the probe hairpin structure is unfolded and the fluorophore is able to emit, and fluorescence is then measurable. This fluorescence measurement is carried out at a temperature of 60° C. for 20 minutes in the presence of the reagents required for activity of the enzyme, meaning dNTP, MgCl2, and a basic buffer at pH 9.5. […]
The ability to restore the activity of the enzyme after heating for 15 min at 95° C. for example is readily measurable by the same method.

T1 sequence (P69905 2-142 limits assumed): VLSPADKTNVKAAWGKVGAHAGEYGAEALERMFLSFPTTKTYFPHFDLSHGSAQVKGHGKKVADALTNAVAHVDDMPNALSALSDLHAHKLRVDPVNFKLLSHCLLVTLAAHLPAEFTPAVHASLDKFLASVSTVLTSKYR
T1 sequence (P68871 2-147 limits assumed): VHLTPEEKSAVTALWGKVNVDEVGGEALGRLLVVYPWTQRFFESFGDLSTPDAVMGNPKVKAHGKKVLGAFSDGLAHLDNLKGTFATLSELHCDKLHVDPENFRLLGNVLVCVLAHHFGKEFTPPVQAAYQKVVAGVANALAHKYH
T2 sequence (P19821 whole entry): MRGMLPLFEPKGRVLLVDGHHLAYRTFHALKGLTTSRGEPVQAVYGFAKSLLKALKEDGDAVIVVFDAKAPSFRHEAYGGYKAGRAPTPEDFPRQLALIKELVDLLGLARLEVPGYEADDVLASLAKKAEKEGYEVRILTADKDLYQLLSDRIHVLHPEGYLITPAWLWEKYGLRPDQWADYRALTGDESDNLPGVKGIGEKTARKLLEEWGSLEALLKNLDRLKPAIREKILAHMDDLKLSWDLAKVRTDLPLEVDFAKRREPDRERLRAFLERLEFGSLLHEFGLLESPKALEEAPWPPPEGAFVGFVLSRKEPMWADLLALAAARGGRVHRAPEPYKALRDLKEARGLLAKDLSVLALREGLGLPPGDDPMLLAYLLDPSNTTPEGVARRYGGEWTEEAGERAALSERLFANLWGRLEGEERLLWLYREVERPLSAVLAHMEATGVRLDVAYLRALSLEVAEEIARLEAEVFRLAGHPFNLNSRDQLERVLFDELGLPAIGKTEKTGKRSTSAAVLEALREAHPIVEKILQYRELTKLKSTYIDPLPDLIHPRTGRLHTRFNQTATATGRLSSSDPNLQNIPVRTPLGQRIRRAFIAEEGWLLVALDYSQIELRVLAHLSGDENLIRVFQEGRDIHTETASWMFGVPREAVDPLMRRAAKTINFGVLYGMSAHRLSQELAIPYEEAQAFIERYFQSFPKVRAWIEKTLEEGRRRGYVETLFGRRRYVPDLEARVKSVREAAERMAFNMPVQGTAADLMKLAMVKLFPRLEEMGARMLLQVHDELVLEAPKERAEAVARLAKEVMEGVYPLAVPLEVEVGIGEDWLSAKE

amide population ([1]; 15 minutes at 95° C.): very low
amide population ([1]; 30 minutes at 95° C.): almost completely disappeared
SMILES: CNc1ncc(I)c(COC(=O)COc2ccc(F)cc2)c1C(=O)NCCc1ccccc1 [derivative 14, (5-iodo-2-(methylamino)-3-(phenethylcarbamoyl)pyridine-4-yl)methyl 2-(4-fluorophenoxy)acetate]

population of the initial amide and the alcohol ([1]; 1 h at 95° C.): almost completely disappeared
SMILES: CNc1ncc(I)c(COC(=O)COc2ccccc2)c1C(=O)NCCc1ccccc1 [derivative 10, (5-iodo-2-(methylamino)-3-(phenethylcarbamoyl)pyridine-4-yl)methyl 2-phenoxyacetate]
species observed by HPLC after heating (cleavage of the amide derivative) ([1]; 15 minutes at 95° C., 10% DMSO): formation of the deprotected alcohol and the expected lactone

SMILES: Cn1c(=O)oc(=O)c2c(COC(=O)COc3ccc(F)cc3)c(I)cnc21 [compound 13, (6-iodo-1-methyl-2,4-dioxo-2,4-dihydro-1H-pyrido[2,3-d][1,3]oxazine-5-yl) methyl 2-(4-fluorophenoxy)acetate]
acylation of hemoglobin (HPLC chromatogram) (Human hemoglobin; 33 μg hemoglobin, AL 600 0.25x-1x, DMSO/PBS pH 7.4, room temperature, 2 hours): disappearance of the protein portion in favor of a massive shift to the right
reversal of the acylation of hemoglobin after heat treatment (HPLC chromatogram) (Human hemoglobin; AL 600 1x, 95° C. for 15 min in PCR buffer (Tris pH9), taken up in 8M GuHCl): restoring the chromatographic profile of the native hemoglobin
polymerase activity of Taq after acylation, without activation (Taq polymerase; 625 units Taq, DMSO/PBS pH 7.4, 3 hours room temperature, measured at 60° C. for 20 minutes): completely inactivated
polymerase activity of Taq after acylation and heat activation (Taq polymerase; after treatment at 95° C. for 15 min under hot start PCR conditions): restored

non-cyclized deprotected form (intermediate amine) on HPLC monitoring ([1]; 95° C.): not detected
SMILES: CNc1ncc(I)c(CNC(=O)OC(C)(C)C)c1C(=O)NCCc1ccccc1 [derivative 19, tert-butyl ((5-iodo-2-(methylamino)-3-(phenethylcarbamoyl)pyridine-4-yl)methyl)carbamate]
